Laboratory results published in the supplement of paper PMC5908809.

Experiments:
[1] = tested on: normal NK cells expanded with K562-aAPC; test: percent inhibition of viability; higher = more inhibition; conditions: 72 h, IL-2 2.5 ng/mL
Experimental: (§1)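 Drug sensitivity and resistance testing on K562-aAPC-expanded normal NK cells: 5 concentrations (10-fold steps over a 10,000-fold range), 72 h at 37 °C, viability by CellTiter-Glo normalised to DMSO and benzethonium chloride controls; DSS from the fitted curve.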

[2] = tested on: DERL-7 (IL-2 2.5 ng/mL); test: as above; conditions: 72 h
[3] = tested on: IMC-1 (IL-2 20 ng/mL); test: as above; conditions: 72 h
[4] = tested on: KAI3 (IL-2 2.5 ng/mL); test: as above; conditions: 72 h
[5] = tested on: KHYG-1 (IL-2 2.5 ng/mL); test: as above; conditions: 72 h
[6] = tested on: NK-92 (IL-2 2.5 ng/mL); test: as above; conditions: 72 h
[7] = tested on: NK-YS (IL-2 2.5 ng/mL); test: as above; conditions: 72 h
[8] = tested on: NKL (IL-2 2.5 ng/mL); test: as above; conditions: 72 h
[9] = tested on: SNK-6 (IL-2 2.5 ng/mL); test: as above; conditions: 72 h
[10] = tested on: YT (IL-2 2.5 ng/mL); test: as above; conditions: 72 h
[11] = tested on: normal primary NK cells, pool 1 (3 donors) (IL-2 2.5 ng/mL); test: as above; conditions: 72 h
[12] = tested on: normal primary NK cells, pool 1 (3 donors), resting (IL-2 0 ng/mL); test: as above; conditions: 72 h
[13] = tested on: normal primary NK cells, pool 2 (3 donors) (IL-2 2.5 ng/mL); test: as above; conditions: 72 h
[14] = tested on: normal primary NK cells, pool 3 (3 donors) (IL-2 2.5 ng/mL); test: as above; conditions: 72 h
[15] = tested on: normal NK cells expanded with K562-aAPC; test: drug sensitivity score (DSS) (DSS units); higher = more sensitive; extreme values may be limits of the assay; conditions: 72 h; IL-2 2.5 ng/mL
Experimental: as §1

[16] = tested on: DERL-7 (IL-2 2.5 ng/mL); test: as above; conditions: 72 h
[17] = tested on: IMC-1 (IL-2 20 ng/mL); test: as above; conditions: 72 h
[18] = tested on: KAI3 (IL-2 2.5 ng/mL); test: as above; conditions: 72 h
[19] = tested on: KHYG-1 (IL-2 2.5 ng/mL); test: as above; conditions: 72 h
[20] = tested on: NK-92 (IL-2 2.5 ng/mL); test: as above; conditions: 72 h
[21] = tested on: NK-YS (IL-2 2.5 ng/mL); test: as above; conditions: 72 h
[22] = tested on: NKL (IL-2 2.5 ng/mL); test: as above; conditions: 72 h
[23] = tested on: SNK-6 (IL-2 2.5 ng/mL); test: as above; conditions: 72 h
[24] = tested on: YT (IL-2 2.5 ng/mL); test: as above; conditions: 72 h
[25] = tested on: normal primary NK cells, pool 1 (3 donors) (IL-2 2.5 ng/mL); test: as above; conditions: 72 h
[26] = tested on: normal primary NK cells, pool 1 (3 donors), resting (IL-2 0 ng/mL); test: as above; conditions: 72 h
[27] = tested on: normal primary NK cells, pool 2 (3 donors) (IL-2 2.5 ng/mL); test: as above; conditions: 72 h
[28] = tested on: normal primary NK cells, pool 3 (3 donors) (IL-2 2.5 ng/mL); test: as above; conditions: 72 h

CNC(=O)c1ccc(N2C(=S)N(c3cnc(C#N)c(C(F)(F)F)c3)C(=O)C23CCC3)cc1F [ARN 509] (max concentration tested 10000 nM)
percent inhibition of viability [%]
Conditions | 1 nM | 10 nM | 100 nM | 1000 nM | 10000 nM
[1] | 0.72 | 1.64 | 2.47 | 20 | 14.2
[2] | 6.41 | -1.09 | -0.93 | -13.3 | -12.6
[3] | 2.81 | -1.31 | 5.83 | 9.26 | 16.9
[4] | -2.56 | -12.9 | 0.32 | 4.54 | 27.9
[5] | -1.73 | -3.05 | 1.87 | 8.59 | 9.64
[6] | -3.11 | -4.21 | 2.28 | -1.18 | 23
[7] | -3.22 | -1.75 | -0.61 | 1.75 | 15.7
[8] | -5.58 | -11.3 | -0.18 | -5.48 | 3.63
[9] | 16.7 | -1.7 | 14.6 | 33.1 | 24.3
[10] | 2.58 | 2.98 | 4.62 | 0.81 | 10.2
[11] | -11.3 | 4.68 | -6.94 | -10.6 | 10.8
[12] | -0.17 | 11.7 | -4.44 | -10.2 | 15.5
[13] | -8.15 | -8.75 | -5.23 | -6.28 | 8.97
[14] | -7.92 | -6.67 | -6.21 | -10.2 | 3.54

Conditions | drug sensitivity score
[15] | 3.05
[16] | 0
[17] | 0.78
[18] | 1.88
[19] | 0
[20] | 0.72
[21] | 0.46
[22] | 0
[23] | 7.62
[24] | 0
[25] | 0
[26] | 0.11
[27] | 0
[28] | 0

CC[C@H](Nc1ncnc2[nH]cnc12)c1nc2cccc(F)c2c(=O)n1-c1ccccc1 [Idelalisib] (max concentration tested 10000 nM)
percent inhibition of viability [%]
Conditions | 1 nM | 10 nM | 100 nM | 1000 nM | 10000 nM
[1] | -1.29 | -3.37 | 3.42 | 14.1 | 38.7
[2] | 0.81 | 7.45 | 12.8 | 35.1 | 66.8
[3] | -6.02 | -6.45 | -0.47 | -2.08 | 11.1
[4] | -6.15 | 4.84 | 14.3 | 12.3 | 24.5
[5] | -5.24 | 5.27 | 6.69 | 5.88 | 20.5
[6] | 7.56 | 15.2 | 42.3 | 40.1 | 54.5
[7] | -9.88 | -3.78 | 3.49 | -1.8 | 18
[8] | -12.5 | -5.82 | 11 | 18.2 | 37
[9] | -11.8 | -5.04 | 17.2 | 23.9 | 57.8
[10] | 1.69 | 6.88 | 13.7 | 12.4 | 27.4
[11] | -2.62 | 10.2 | 9.54 | 5.66 | 28.7
[12] | 1.24 | 15.1 | 10.3 | 1.19 | 46.2
[13] | -10.8 | -5.29 | 14.8 | 13.4 | 35.6
[14] | -3.21 | -0.12 | 6.64 | 10.3 | 26.2

Conditions | drug sensitivity score
[15] | 3.47
[16] | 8.42
[17] | 0
[18] | 2.76
[19] | 0.8
[20] | 14.8
[21] | 0.36
[22] | 3.92
[23] | 6.33
[24] | 3
[25] | 1.85
[26] | 2.55
[27] | 3.36
[28] | 1.78
